Test results as given in ChEMBL document CHEMBL1133271, “Synthesis and biological property of carba and 20-deoxo analogues of arenastatin A” (Bioorg Med Chem Lett, 2000).
Converted amounts (≈) assume the structure as drawn.

Test: Cytotoxicity of compound was determined against KB cells
Format: functional, cell-based
Conditions: Homo sapiens

SMILES: COc1ccc(C[C@H]2NC(=O)/C=C/C[C@@H]([C@H](C)C3OC3c3ccccc3)OC(=O)[C@H](CC(C)C)OCCNC2=O)cc1 (some centres undefined)
- IC50: 40 ng/mL (≈ 69.1 nM)

SMILES: COc1ccc(C[C@H]2NC(=O)/C=C/C[C@@H]([C@H](C)[C@H]3O[C@@H]3c3ccccc3)OC(=O)[C@H](CC(C)C)OC(=O)CCNC2=O)cc1 [ARENASTATIN A]
- IC50: 0.005 ng/mL (≈ 0.00824 nM)

SMILES: COc1ccc(C[C@H]2NC(=O)/C=C/C[C@@H]([C@H](C)C3OC3c3ccccc3)OC(=O)[C@H](CC(C)C)CC(=O)CCNC2=O)cc1 (some centres undefined)
- IC50: 70 ng/mL (≈ 116 nM)

SMILES: COc1ccc(C[C@H]2NC(=O)/C=C/C[C@@H]([C@H](C)C3OC3c3ccccc3)OC(=O)[C@H](CC(C)C)NC(=O)CCNC2=O)cc1 (some centres undefined)
- IC50: 6 ng/mL (≈ 9.91 nM)
